Experimental data reported in US20060002932A1, “Methods and compositions for enhancement of immunity by in vivo depletion of immunosuppressive cell activity” (priority 2004, published 2006).
Several values for one entry are separate records, joined by “and”; a condition that tells them apart may be missing. Equal entries are not always repeated.

Experiments:
[1] = system: CD4^+CD25^− and CD4^+CD25^int cells; test: MTT cytotoxicity assay on CD25 negative/intermediate CD4+ T cells; format: cell-based, human
Description: After 48 hours of incubation, 20 μL MTT from a 5 mg/mL stock was added and incubation was continued for another 4 hours. The formazan crystals were solubilized by adding 100 μL isopropanol/0.1 M hydrochloric acid and incubating at 37° C. for 2 hours. The absorbance of the formazan product was measured on an enzyme-linked immunosorbent assay (ELISA) plate reader at 570 nm.
Interferon-γ and IL-4 ELISPOT analyses were performed using PBMC obtained prior to, during, and after vaccination. PBMC were cultured overnight in complete RPMI 1640 medium. CD4^+ and CD8^+ T cells were isolated from PBMC by negative depletion (Miltenyi). After blocking, 1×10^5 T cells and 1×10^4 RNA-transfected DC were added to each well of 96-well nitrocellulose plates (Multiscreen-IP, Millipore) precoated with 2 μg/ml Interferon-γ capture antibody (Endogen) or with IL-4 capture antibody (BD Biosciences Pharmingen). Plates were incubated for 20 hours at 37° C., and biotinylated Interferon-γ detection antibody (Endogen) or biotinylated IL-4 antibody (BD Biosciences Pharmingen) was added to each well. […] After washing, spots were counted using an automated ELISPOT reader (Carl Zeiss). […] Then, 50 μl of supernatant was harvested, and release of ^51Cr was measured with a scintillation counter. […] Incorporation of thymidine was determined using a liquid scintillation counter.

CD4^+/CD25^high Treg = test: Depletion of regulatory T cells in vivo (FACS of patient PBMC); design: species or system human; conditions: for Treg Depletion (%): single i.v. dose 18 μg/kg
Description: Four-color FACS analyses were performed using a Becton Dickinson FACSCalibur™. Fluorochrome-conjugated antibodies including anti-CD4 FITC, anti-CD45RO, anti-CD45RA (Caltag, Burlingame, Calif.); anti-CD25 PE (Becton Dickinson, California, CA) as well as isotypic control antibodies (Caltag, Burlingame, Calif.) were used for T-cell staining. Expression of GITR was analyzed by staining T cells with anti-GITR antibody (R&D Systems, Minneapolis, Minn.) followed by secondary goat anti-mouse antibody conjugated to APC. For determination of intracellular CTLA-4 expression, T cells were permeabilized with 0.5% saponin, fixed with 4% paraformaldehyde and then stained with biotinylated anti-CD152 (Becton Dickinson, California, CA) followed by APC-strepavidin (Becton Dickinson, California, CA). A total of 1×10^6 cells were suspended in staining buffer (PBS with 1% FCS, 2 mM EDTA, and 0.1% sodium azide) and incubated for 20 minutes at 4° C. with the antibody. Data were analyzed and presented using CELLQuest™ software. Sorting of CD4^+CD25^neg, CD4^+CD25^int and CD4^+CD25^high T cells was performed with a BD FACSAria™ cell sorter after antibody labeling. For detection of cytokine secretion, isolated CD4^+ T cells were activated for 16 hours in the presence of autologous mRNA-transfected DC. Cytokine secretion was measured using c Th1/Th2 cytokine cytometric bead arrays according to the manufacturer's protocol (BD Biosciences Pharmingen, San Diego, Calif.).
Using these methods, the degree of regulatory T cell depletion efficacy in the four subjects treated on the clinical protocol was determined.
Four-color FACS analyses were performed using the following antibodies: anti-CD4 FITC, anti-CD45RO, anti-CD45RA (Caltag), anti-CD25 PE (Becton Dickinson), anti-GITR (R&D Systems), and isotypic controls (Caltag). Sorting of CD4^+/CD25^neg, CD4^+/CD25^int and CD4^+/CD25^high T cells was performed using a Becton Dickinson FACSAria™ cell sorter after antibody labeling. For intracellular detection of FoxP3, cells were permeabilized with 30 μg/ml digitonin for 45 minutes at 4° C. Subsequently, cells were stained with anti-FoxP3 antibody (Abcam), and R-PE anti-goat IgG in the presence of 10 μg/ml digitonin for 30 minutes at 4° C. Following staining, cells were fixed and analyzed by FACS. For intracellular CTLA-4 detection, T cells were permeabilized, fixed, and stained with biotinylated anti-CD152 (Becton Dickinson) followed by APC-streptavidin (Becton Dickinson). A total of 1×10^6 cells was suspended in staining buffer (PBS with 1% FCS, 2 mM EDTA, and 0.1% sodium azide) and incubated for 20 minutes at 4° C. with the antibody.

[2] = system: CD4^+ T-cell populations with increasing densities of CD25; test: 7-AAD staining of CD4+ T-cell populations; format: cell-based, human

Substance: denileukin diftitox [DAB389IL-2]
- concentration above which cell death occurred in CD4^+CD25^− and CD4^+CD25^int cells [1]: higher than 10 nM
- cell death of CD4^+CD25^− and CD4^+CD25^int cells ([1]; concentrations up to 10 nM): did not result in significant cell death
- Treg Depletion (%) (CD4^+/CD25^high Treg; Example 1, per patient, four days after treatment): 74% and 88% and 37% and 77%
- Treg Depletion (%) (CD4^+/CD25^high Treg; Example 1, per patient, four days after treatment, listed as DAB 389 IL-2): 74% and 88% and 37% and 77%
- Treg Depletion (%) (CD4^+/CD25^high Treg; Example 2, per patient, 4 days after infusion): 74% and 72% and 68% and 76% and 57% and 26% and 35%
- effect on CD25^neg/int subsets (CD4^+/CD25^high Treg; total CD25^pos cells after DAB389IL-2): CD25^neg/int subsets were unaffected
- Treg restored in the peripheral T-cell pool (CD4^+/CD25^high Treg; within two months): approximately 75%
- 7-AAD staining of other CD4^+ T cells with lower or no CD25 expression [2]: only background levels of 7-AAD staining
- concentration giving optimal killing of CD4^+/CD25^high Treg ([2]; 7-AAD staining): 5 nM
